29 compounds from patent US9663473B2 (Actelion Pharmaceuticals Ltd, priority 2013, dated 2017) can be followed below.

Structures are written as SMILES. Where a name gives a salt, the structure may show the parent alone.

The target of the assay is T1, recombinant human ALX receptor (Homo sapiens, UniProt P25090).
T1 construct: expressed in transfected cells; host or cells: HEK293 (HEK293-hALXR-Gα16)
T1 sequence (P25090 1-351): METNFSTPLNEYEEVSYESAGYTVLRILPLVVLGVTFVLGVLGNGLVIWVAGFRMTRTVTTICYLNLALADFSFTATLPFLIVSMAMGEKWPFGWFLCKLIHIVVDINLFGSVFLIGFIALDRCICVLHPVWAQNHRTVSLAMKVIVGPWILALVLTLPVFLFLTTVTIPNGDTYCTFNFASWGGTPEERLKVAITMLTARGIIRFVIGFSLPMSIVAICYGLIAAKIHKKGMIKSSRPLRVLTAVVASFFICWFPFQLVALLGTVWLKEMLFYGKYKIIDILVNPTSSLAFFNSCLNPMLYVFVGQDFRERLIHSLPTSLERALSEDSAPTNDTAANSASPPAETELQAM
The assay is described as follows: Intracellular calcium measurements (FLIPR), ALX receptor agonistic activity. The assay is classed as cell-based. Particulars: HEK293-hALXR-Gα16 cells, Fluo-4 calcium signal, normalized to WKYMVm 10 nM. In outline: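 Agonist-induced calcium flux was read by FLIPR (488/540 nm) as baseline-subtracted peak emission, expressed relative to WKYMVm at 10 nM final. Cells used: HEK293-hALXR-Gα16, dye-loaded 60 min at 37° C. with 1 μM Fluo-4 AM before compound dose-response addition.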

Take `CC(F)(F)c1ccc(CC(NC(=O)N[C@H]2CC[C@H](O)CC2)c2nc3ccccc3[nH]2)cc1` (single isomer, unassigned; ent-1) [Example 394, 1-(1-(1H-Benzo[d]imidazol-2-yl)-2-(4-(1,1-difluoroethyl)phenyl)ethyl)-3-(trans-4-hydroxycyclohexyl)urea (ent-1)]: the concentration for a half-maximal effect (EC50) was found to be 4.7 nM.
In the case of `COc1ccc(C[C@@H](NC(=O)N[C@H]2CC[C@H](O)CC2)c2nc3cc(F)ccc3[nH]2)cc1` [Example 85, 1-((R)-1-(5-Fluoro-1H-benzo[d]imidazol-2-yl)-2-(4-methoxyphenyl)ethyl)-3-(trans-4-hydroxycyclohexyl)urea] it was 1.6 nM; in that of `COc1ccc(C[C@@H](NC(=O)N[C@@H]2CCc3ccccc32)c2nc3ccccc3[nH]2)cc1` [Example 334, 1-((R)-1-(1H-Benzo[d]imidazol-2-yl)-2-(4-methoxyphenyl)ethyl)-3-((R)-2,3-dihydro-1H-inden-1-yl)urea], 111 nM; in that of `COc1ccc(C[C@@H](NC(=O)NCCN2CCc3ccccc32)c2nc3ccccc3[nH]2)cc1` [Example 286, (R)-1-(1-(1H-Benzo[d]imidazol-2-yl)-2-(4-methoxyphenyl)ethyl)-3-(2-(indolin-1-yl)ethyl)urea], 102 nM.
In the case of `COc1ccc(CC(NC(=O)NCc2ccc(Cl)cc2)c2nc3ccccc3[nH]2)cc1` (centres unmarked) [Example 43, 1-(1-(1H-Benzo[d]imidazol-2-yl)-2-(4-methoxyphenyl)ethyl)-3-(4-chlorobenzyl)urea] it was 611 nM.
In the case of `COc1ccc(C[C@@H](NC(=O)N2CCN(C(=O)OC(C)(C)C)CC2)c2nc3ccccc3[nH]2)cc1` [Example 130, (R)-tert-Butyl 4-((1-(1H-benzo[d]imidazol-2-yl)-2-(4-methoxyphenyl)ethyl)carbamoyl)piperazine-1-carboxylate] it was 1060 nM; in that of `O=C(NC(Cc1ccc(Br)c(F)c1)c1nc2ccccc2[nH]1)NC12CCC(O)(CC1)CC2` (single isomer, unassigned; ent-1) [Example 258, 1-(1-(1H-Benzo[d]imidazol-2-yl)-2-(4-bromo-3-fluorophenyl)ethyl)-3-(4-hydroxybicyclo[2.2.2]octan-1-yl)urea (ent-1)], 40 nM.
As to `COc1ccc(C[C@@H](NC(=O)NC(C)(C)c2ccccc2)c2nc3ccccc3[nH]2)cc1` [Example 350, (R)-1-(1-(1H-Benzo[d]imidazol-2-yl)-2-(4-methoxyphenyl)ethyl)-3-(2-phenylpropan-2-yl)urea], the EC50 was determined as 288 nM.
In the case of `O=C(NC(Cc1ccc(C(F)(F)F)c(F)c1)c1nc2ccccc2[nH]1)N[C@H]1CC[C@H](O)CC1` (relative stereo) [Example 237, 1-(1-(1H-Benzo[d]imidazol-2-yl)-2-(3-fluoro-4-(trifluoromethyl)phenyl)ethyl)-3-(trans-4-hydroxycyclohexyl)urea] it was 36 nM.
In the case of `COc1ccc(C[C@H](NC(=O)NC2CC(C)(C)NC(C)(C)C2)c2nc3ccccc3[nH]2)cc1` [Example 397, (S)-1-(1-(1H-benzo[d]imidazol-2-yl)-2-(4-methoxyphenyl)ethyl)-3-(2,2,6,6-tetramethylpiperidin-4-yl)urea] it was 808 nM.
In the case of `COc1ccc(C[C@@H](NC(=O)N[C@@H](C)c2ccc(C)cc2)c2nc3ccccc3[nH]2)cc1` [Example 333, 1-((R)-1-(1H-Benzo[d]imidazol-2-yl)-2-(4-methoxyphenyl)ethyl)-3-((S)-1-(p-tolyl)ethyl)urea] it was 105 nM.
On to `COc1ccc(CC(NC(=O)NCc2nc3ccccc3s2)c2nc3ccccc3[nH]2)cc1` (centres unmarked) [Example 38, 1-(1-(1H-Benzo[d]imidazol-2-yl)-2-(4-methoxyphenyl)ethyl)-3-(benzo[d]thiazol-2-ylmethyl)urea], for which the concentration giving a half-maximal response (EC50) amounted to 198 nM.
In the case of `O=C(N[C@H](Cc1ccc(Br)cc1)c1nc2ccccc2[nH]1)N[C@H]1CC[C@H](O)CC1` [Example 35, 1-((R)-1-(1H-Benzo[d]imidazol-2-yl)-2-(4-bromophenyl)ethyl)-3-(trans-4-hydroxycyclohexyl)urea] it was 5.4 nM; in that of `COc1ccc(C[C@@H](NC(=O)N[C@@H](C)c2cccc(OC)c2)c2nc3ccccc3[nH]2)cc1` [Example 323, 1-((R)-1-(1H-Benzo[d]imidazol-2-yl)-2-(4-methoxyphenyl)ethyl)-3-((S)-1-(3-methoxyphenyl)ethyl)urea], 44 nM; in that of `CCOC(=O)[C@@H]1CCCC[C@H]1NC(=O)N[C@H](Cc1ccc(OC)cc1)c1nc2ccccc2[nH]1` (relative stereo) [Example 29, trans-Ethyl 2-(3-((R)-1-(1H-benzo[d]imidazol-2-yl)-2-(4-methoxyphenyl)ethyl)ureido)cyclohexanecarboxylate (ent-1)], 56 nM.
In the case of `COc1ccc(C[C@@H](NC(=O)NC2COCc3ccccc32)c2nc3ccccc3[nH]2)cc1` (stereo partly drawn) [Example 218, 1-((R)-1-(1H-Benzo[d]imidazol-2-yl)-2-(4-methoxyphenyl)ethyl)-3-(isochroman-4-yl)urea] it was 34 nM; in that of `O=C(N[C@H](Cc1ccc(Cl)cc1)c1nc2ccccc2[nH]1)N[C@H]1CC[C@H](O)CC1` [Example 123, 1-((R)-1-(1H-Benzo[d]imidazol-2-yl)-2-(4-chlorophenyl)ethyl)-3-(trans-4-hydroxycyclohexyl)urea], 44 nM.
In the case of `COc1ccc(C[C@@H](NC(=O)N[C@H]2CC[C@H](O)CC2)c2nc3cc(OC)ccc3[nH]2)cc1` [Example 84, 1-(trans-4-Hydroxycyclohexyl)-3-((R)-1-(5-methoxy-1H-benzo[d]imidazol-2-yl)-2-(4-methoxyphenyl)ethyl)urea] it was 11 nM.
As to `COc1ccc(C[C@@H](NC(=O)N[C@H]2CCCC[C@@H]2O)c2nc3ccccc3[nH]2)cc1` (relative stereo) [Example 24, 1-((R)-1-(1H-Benzo[d]imidazol-2-yl)-2-(4-methoxyphenyl)ethyl)-3-((1 S*,2S*)-2-hydroxycyclohexyl)urea], the concentration for a half-maximal effect (EC50) was found to be 24 nM.
In the case of `O=C(N[C@H](Cc1ccc(C(F)(F)F)cc1)c1nc2cc(F)ccc2[nH]1)NC12CCC(O)(CC1)CC2` [Example 267, (R)-1-(1-(5-Fluoro-1H-benzo[d]imidazol-2-yl)-2-(4-(trifluoromethyl)phenyl)ethyl)-3-(4-hydroxybicyclo[2.2.2]octan-1-yl)urea] it was 14 nM.
In the case of `O=C(NC(Cc1ccc(C(F)(F)F)cc1F)c1nc2ccccc2[nH]1)NC12CCC(O)(CC1)CC2` (single isomer, unassigned; ent-1) [Example 362, 1-(1-(1H-Benzo[d]imidazol-2-yl)-2-(2-fluoro-4-(trifluoromethyl)phenyl)ethyl)-3-(4-hydroxybicyclo[2.2.2]octan-1-yl)urea (ent-1)] it was 27 nM; in that of `COc1ccc(C[C@@H](NC(=O)NCc2ccccc2Cl)c2nc3ccccc3[nH]2)cc1` [Example 207, (R)-1-(1-(1H-Benzo[d]imidazol-2-yl)-2-(4-methoxyphenyl)ethyl)-3-(2-chlorobenzyl)urea], 835 nM; in that of `COc1ccc(CC(NC(=O)NCCN2CCCC2)c2nc3ccccc3[nH]2)cc1` (centres unmarked) [Example 391, 1-(1-(1H-Benzo[d]imidazol-2-yl)-2-(4-methoxyphenyl)ethyl)-3-(2-(pyrrolidin-1-yl)ethyl)urea], 2720 nM.
In the case of `COc1ccc(C[C@@H](NC(=O)NCCC2CCNCC2)c2nc3ccccc3[nH]2)cc1` [Example 156, (R)-1-(1-(1H-Benzo[d]imidazol-2-yl)-2-(4-methoxyphenyl)ethyl)-3-(2-(piperidin-4-yl)ethyl)urea] it was 94 nM.
In the case of `COc1cc(F)c(CC(NC(=O)N[C@H]2CC[C@H](O)CC2)c2nc3ccccc3[nH]2)cc1F` (single isomer, unassigned; ent-1) [Example 356, 1-(1-(1H-Benzo[d]imidazol-2-yl)-2-(2,5-difluoro-4-methoxyphenyl)ethyl)-3-(trans-4-hydroxycyclohexyl)urea (ent-1)], the 50% effective concentration (EC50) was 5.5 nM.
In the case of `O=C(N[C@H](Cc1ccc(C(F)(F)F)cc1)c1nc2ccccc2[nH]1)N[C@H]1CC[C@H](O)CC1` [Example 190, 1-((R)-1-(1H-Benzo[d]imidazol-2-yl)-2-(4-(trifluoromethyl)phenyl)ethyl)-3-(trans-4-hydroxycyclohexyl)urea] it was 19 nM; in that of `COc1ccc(CC(NC(=O)NC23CCC(O)(CC2)CC3)c2nc3ccc(F)cc3[nH]2)c(F)c1` (centres unmarked) [Example 245, 1-(1-(6-Fluoro-1H-benzo[d]imidazol-2-yl)-2-(2-fluoro-4-methoxyphenyl)ethyl)-3-(4-hydroxybicyclo[2.2.2]octan-1-yl)urea], 4.1 nM.
In the case of `COc1ccc(C[C@@H](NC(=O)NCCc2ccc(F)c(F)c2)c2nc3ccccc3[nH]2)cc1` [Example 300, (R)-1-(1-(1H-Benzo[d]imidazol-2-yl)-2-(4-methoxyphenyl)ethyl)-3-(3,4-difluorophenethyl)urea] it was 82 nM; in that of `COc1ccc(C[C@@H](NC(=O)NCc2cccnc2OCC(F)(F)F)c2nc3ccccc3[nH]2)cc1` [Example 64, (R)-1-(1-(1H-Benzo[d]imidazol-2-yl)-2-(4-methoxyphenyl)ethyl)-3-((2-(2,2,2-trifluoroethoxy)pyridin-3-yl)methyl)urea hydrochloride], 51 nM.
